What was measured:
[1] = test system: HeLa cells (cervical cancer); assay: MTT cell viability assay, 72 h, HeLa; assay type: cell-based, human; details: Homo sapiens, HeLa, 72 h, MTT assay, 72 h incubation, mean ± SD
Description: (§1) Compounds 7–36 and 47–54 were tested regarding their effect on growth of three human cancer cell lines: colon cancer HCT-116, breast cancer MCF-7 and cervical cancer HeLa, as well as on noncancerous keratinocyte cell line HaCaT. Cell viability was measured with MTT assay after 72 h of incubation with tested compound in five concentration 1–100 μM. The MTT test enables us to quantify the living cells by measuring the activity of mitochondrial enzymes, enables reducing tetrazolium dye MTT to purple formazan. In this manner, IC50—molar concentration [µM] that inhibits 50% net cell growth—was determined (Table 1 and Table 2).
(§2) All chemicals, if not stated otherwise, were obtained from Sigma-Aldrich (St. Louis, MO, USA). The MCF-7, HeLa and HaCaT cell lines were purchased from Cell Lines Services (Eppelheim, Germany), the HCT-116 cell line were obtained from ATCC (ATCC-No: CCL-247). Cells were cultured in Dulbecco’s modified Eagle’s medium (DMEM) supplemented with 10% fetal bovine serum, 2 mM glutamine, 100 units/mL penicillin, and 100 μg/mL streptomycin. Cultures were maintained in a humidified atmosphere with 5% CO2 at 37 °C in an incubator (HeraCell, Heraeus, Langenselbold, Germany). Cell viability was determined using the MTT [3-(4,5-dimethylthiazol-2-yl)-2,5-diphenyl-tetrazolium bromide] assay. Stock solutions of the studied compounds were obtained in 100% DMSO. […] Cells were seeded in 96-well plates at a density of 5 × 10^3 cells/well and treated for 72 h with the examined compounds in the concentration range 1–100 μM (1, 10, 25, 50 and 100 μM). Following treatment, MTT (0.5 mg/mL) was added to the medium and cells were further incubated for 2 h at 37 °C. Cells were lysed with DMSO and the absorbance of the formazan solution was measured at 550 nm with a plate reader Victor 1420 multilabel counter, (PerkinElmer, Inc. Waltham, MA USA). […] The experiment was performed in triplicate. Values are expressed as the mean ± SD of at least three independent experiments

[2] = test system: HCT-116 cells (colon cancer); assay: MTT cell viability assay, 72 h, HCT-116; assay type: cell-based, human; details: for IC50: MTT assay, 72 h incubation, mean ± SD
Description: as §1, §2

[3] = test system: MCF-7 cells (breast cancer); assay: MTT cell viability assay, 72 h, MCF-7; assay type: cell-based, human; details: Homo sapiens, MCF7, 72 h, MTT assay, 72 h incubation, mean ± SD
Description: as §1, §2

[4] = test system: HaCaT noncancerous keratinocyte cell line; assay: MTT cell viability assay, 72 h, HaCaT; assay type: cell-based; details: for IC50: Homo sapiens, HaCaT, MTT assay, 72 h incubation, mean ± SD; for activity against HaCaT compared with cancer lines: in words
Description: as §1, §2

N#Cc1ccc(/C=C/c2nnc(-c3ccc(Cl)cc3Cl)o2)cc1 [Compound 53, (E)-4-(2-(5-(2,4-Dichlorophenyl)-1,3,4-oxadiazol-2-yl)vinyl)benzonitrile]
IC50 [1]: 225 ± 11 µM | IC50 ([2]; Homo sapiens, HCT-116, 72 h): 106 ± 3 µM | IC50 [3]: 142 ± 6 µM

NS(=O)(=O)c1cc(-c2nnc(/C=C/c3ccco3)o2)c(Cl)cc1Cl [Compound 33, (E)-2,4-Dichloro-5-(5-(2-(furan-2-yl)vinyl)-1,3,4-oxadiazol-2-yl)benzenesulfonamide]
IC50 [1]: 210 ± 8 µM | IC50 ([2]; Homo sapiens, HCT-116, 72 h): 33 ± 1 µM | IC50 [4]: 200 ± 12 µM | IC50 [3]: 170 ± 9 µM

NS(=O)(=O)c1cc(-c2nnc(/C=C/c3ccc(C(F)(F)F)cc3)o2)c(Cl)cc1Cl [Compound 21, (E)-2,4-Dichloro-5-(5-(4-(trifluoromethyl)styryl)-1,3,4-oxadiazol-2-yl)benzenesulfonamide]
IC50 [1]: 90 ± 2 µM | IC50 ([2]; Homo sapiens, HCT-116, 72 h): 18 ± 1 µM | IC50 [4]: 95 ± 4 µM | IC50 [3]: 75 ± 2 µM

NS(=O)(=O)c1cc(-c2nnc(/C=C/c3cccc(Cl)c3)o2)c(Cl)cc1Cl [Compound 9, (E)-2,4-Dichloro-5-(5-(3-chlorostyryl)-1,3,4-oxadiazol-2-yl)benzenesulfonamide]
IC50 [1]: 19 ± 1 µM | IC50 ([2]; Homo sapiens, HCT-116, 72 h): 24 ± 1 µM | IC50 [4]: 98 ± 2 µM | IC50 [3]: 150 ± 10 µM

NS(=O)(=O)c1cc(-c2nnc(/C=C/c3ccncc3)o2)c(Cl)cc1SCc1ccccc1 [Compound 24, (E)-2-(Benzylthio)-4-chloro-5-(5-(2-(pyridin-4-yl)vinyl)-1,3,4-oxadiazol-2-yl)benzenesulfonamide]
IC50 [1]: 135 ± 8 µM | IC50 ([2]; Homo sapiens, HCT-116, 72 h): 31 ± 1 µM | IC50 [4]: 150 ± 8 µM | IC50 [3]: 225 ± 11 µM

NS(=O)(=O)c1cc(-c2nnc(/C=C/c3ccncc3)o2)c(Cl)cc1Cl [Compound 23, (E)-2,4-Dichloro-5-(5-(2-(pyridin-4-yl)vinyl)-1,3,4-oxadiazol-2-yl)benzenesulfonamide]
IC50 [1]: 740 ± 37 µM | IC50 ([2]; Homo sapiens, HCT-116, 72 h): 255 ± 13 µM | IC50 [3]: 640 ± 13 µM

NS(=O)(=O)c1cc(-c2nnc(/C=C/c3cccs3)o2)c(Cl)cc1SCc1ccccc1 [Compound 30, (E)-2-(Benzylthio)-4-chloro-5-(5-(2-(thiophen-2-yl)vinyl)-1,3,4-oxadiazol-2-yl)benzenesulfonamide]
IC50 [1]: 87 ± 3 µM | IC50 ([2]; Homo sapiens, HCT-116, 72 h): 32 ± 2 µM | IC50 [4]: 85 ± 4 µM | IC50 [3]: 66 ± 2 µM

NS(=O)(=O)c1cc(-c2nnc(/C=C/c3ccc(Cl)cc3)o2)c(Cl)cc1Cl [Compound 11, (E)-2,4-Dichloro-5-(5-(4-chlorostyryl)-1,3,4-oxadiazol-2-yl)benzenesulfonamide]
IC50 [1]: 42 ± 1 µM | IC50 ([2]; Homo sapiens, HCT-116, 72 h): 22 ± 1 µM | IC50 [4]: 51 ± 3 µM | IC50 [3]: 28 ± 1 µM

N#Cc1ccc(/C=C/c2nnc(-c3cc(S(N)(=O)=O)c(Cl)cc3Cl)o2)cc1 [Compound 19, (E)-2,4-Dichloro-5-(5-(4-cyanostyryl)-1,3,4-oxadiazol-2-yl)benzenesulfonamide]
IC50 [1]: 117 ± 6 µM | IC50 ([2]; Homo sapiens, HCT-116, 72 h): 13.7 ± 0.5 µM | IC50 [4]: 102 ± 3 µM | IC50 [3]: 10 ± 0.3 µM

NS(=O)(=O)c1cc(-c2nnc(/C=C/c3cccs3)o2)c(Cl)cc1Cl [Compound 29, (E)-2,4-Dichloro-5-(5-(2-(thiophen-2-yl)vinyl)-1,3,4-oxadiazol-2-yl)benzenesulfonamide]
IC50 [1]: 245 ± 12 µM | IC50 ([2]; Homo sapiens, HCT-116, 72 h): 108 ± 4 µM | IC50 [3]: 175 ± 12 µM

NS(=O)(=O)c1cc(-c2nnc(/C=C/c3ccccn3)o2)c(Cl)cc1Cl [Compound 27, (E)-2,4-Dichloro-5-(5-(2-(pyridin-2-yl)vinyl)-1,3,4-oxadiazol-2-yl)benzenesulfonamide]
IC50 [1]: 170 ± 5 µM | IC50 ([2]; Homo sapiens, HCT-116, 72 h): 117 ± 4 µM | IC50 [3]: 110 ± 2 µM

NS(=O)(=O)c1ccc(-c2nnc(/C=C/c3ccccc3)o2)cc1 [Compound 47, (E)-4-(5-Styryl-1,3,4-oxadiazol-2-yl)benzenesulfonamide]
IC50 [1]: 130 ± 7 µM | IC50 ([2]; Homo sapiens, HCT-116, 72 h): 185 ± 11 µM | IC50 [3]: 168 ± 8 µM

NS(=O)(=O)c1cc(-c2nnc(/C=C/c3ccc(C(F)(F)F)cc3)o2)c(Cl)cc1SCc1ccccc1 [Compound 22, (E)-2-(Benzylthio)-4-chloro-5-(5-(4-(trifluoromethyl)styryl)-1,3,4-oxadiazol-2-yl)benzenesulfonamide]
IC50 [1]: 33.4 ± 0.5 µM | IC50 ([2]; Homo sapiens, HCT-116, 72 h): 15.2 ± 0.1 µM | IC50 [4]: 33 ± 1 µM | IC50 [3]: 30 ± 1 µM

NS(=O)(=O)c1cc(-c2nnc(/C=C/c3ccc([N+](=O)[O-])o3)o2)c(Cl)cc1SCc1ccccc1 [Compound 35, (E)-2-(Benzylthio)-4-chloro-5-(5-(2-(5-nitrofuran-2-yl)vinyl)-1,3,4-oxadiazol-2-yl)benzenesulfonamide]
IC50 [1]: 69 ± 3 µM | IC50 ([2]; Homo sapiens, HCT-116, 72 h): 4 µM | IC50 [2]: 4.1 ± 0.2 µM | times more active against HCT-116 than HaCaT ([2]; selectivity HCT-116 vs HaCaT): 22 times | times more active against HCT-116 than HeLa ([2]; selectivity HCT-116 vs HeLa): 17 times | times more active against HCT-116 than MCF-7 ([2]; selectivity HCT-116 vs MCF-7): 37 times | IC50 [4]: 87 ± 4 µM | selectivity index SI (IC50 for HaCaT cell line/IC50 for cancerous cell line) ([4]; cancer line not given, active derivatives (IC50 for cancer line ≤ 25 µM)): 22 | IC50 [3]: 150 ± 8 µM

NS(=O)(=O)c1cc(-c2nnc(/C=C/c3ccc([N+](=O)[O-])s3)o2)c(Cl)cc1SCc1ccccc1 [Compound 32, (E)-2-(Benzylthio)-4-chloro-5-(5-(2-(5-nitrothiophen-2-yl)vinyl)-1,3,4-oxadiazol-2-yl)benzenesulfonamide]
IC50 [1]: 58 ± 2 µM | IC50 ([2]; Homo sapiens, HCT-116, 72 h): 17 ± 1 µM | IC50 [4]: 57 ± 1 µM | IC50 [3]: 55 ± 3 µM

N#Cc1ccc(/C=C/c2nnc(-c3ccc(S(N)(=O)=O)cc3)o2)cc1 [Compound 49, (E)-4-(5-(4-Cyanostyryl)-1,3,4-oxadiazol-2-yl)benzenesulfonamide]
IC50 [1]: 99 ± 3 µM | IC50 ([2]; Homo sapiens, HCT-116, 72 h): 32 ± 2 µM | IC50 [4]: 98 ± 4 µM | IC50 [3]: 75 ± 4 µM

NS(=O)(=O)c1cc(-c2nnc(/C=C/c3ccc(O)cc3)o2)c(Cl)cc1SCc1ccccc1 [Compound 18, (E)-2-(Benzylthio)-4-chloro-5-(5-(4-hydroxystyryl)-1,3,4-oxadiazol-2-yl)benzenesulfonamide]
IC50 [1]: 18.2 ± 0.5 µM | IC50 ([2]; Homo sapiens, HCT-116, 72 h): 18 ± 1 µM | IC50 [4]: 25.6 ± 0.5 µM | activity against HaCaT compared with cancer lines [4]: at the same level as against cancer lines | IC50 [3]: 59 ± 3 µM

Clc1ccc(-c2nnc(/C=C/c3ccccc3)o2)c(Cl)c1 [Compound 51, (E)-2-(2,4-Dichlorophenyl)-5-styryl-1,3,4-oxadiazole]
IC50 [1]: 190 ± 10 µM | IC50 ([2]; Homo sapiens, HCT-116, 72 h): 92 ± 2 µM | IC50 [3]: 125 ± 6 µM

FC(F)(F)c1ccc(/C=C/c2nnc(-c3ccc(Cl)cc3Cl)o2)cc1 [Compound 54, (E)-2-(2,4-Dichlorophenyl)-5-(4-(trifluoromethyl)styryl)-1,3,4-oxadiazole]
IC50 [1]: 104 ± 3 µM | IC50 ([2]; Homo sapiens, HCT-116, 72 h): 98 ± 1 µM | IC50 [3]: 102 ± 5 µM

NS(=O)(=O)c1cc(-c2nnc(/C=C/c3cccc(Cl)c3)o2)c(Cl)cc1SCc1ccccc1 [Compound 10]
activity against HaCaT compared with cancer lines [4]: at the same level as against cancer lines

Clc1ccc(/C=C/c2nnc(-c3ccc(Cl)cc3Cl)o2)cc1 [Compound 52, (E)-2-(4-Chlorostyryl)-5-(2,4-dichlorophenyl)-1,3,4-oxadiazole]
IC50 [1]: 215 ± 6 µM | IC50 ([2]; Homo sapiens, HCT-116, 72 h): 64 ± 3 µM | IC50 [3]: 110 ± 6 µM

NS(=O)(=O)c1cc(-c2nnc(/C=C/c3cccnc3)o2)c(Cl)cc1Cl [Compound 25, (E)-2,4-Dichloro-5-(5-(2-(pyridin-3-yl)vinyl)-1,3,4-oxadiazol-2-yl)benzenesulfonamide]
IC50 [1]: 570 ± 17 µM | IC50 ([2]; Homo sapiens, HCT-116, 72 h): 220 ± 11 µM | IC50 [3]: 760 ± 24 µM

NS(=O)(=O)c1cc(-c2nnc(/C=C/c3ccccc3)o2)c(Cl)cc1Cl [Compound 7, (E)-2,4-Dichloro-5-(5-styryl-1,3,4-oxadiazol-2-yl)benzenesulfonamide]
IC50 [1]: 455 ± 14 µM | IC50 ([2]; Homo sapiens, HCT-116, 72 h): 86 ± 3 µM | IC50 [3]: 165 ± 5 µM

NS(=O)(=O)c1cc(-c2nnc(/C=C/c3cccnc3)o2)c(Cl)cc1SCc1ccccc1 [Compound 26, (E)-2-(Benzylthio)-4-chloro-5-(5-(2-(pyridin-3-yl)vinyl)-1,3,4-oxadiazol-2-yl)benzenesulfonamide]
IC50 [1]: 135 ± 4 µM | IC50 ([2]; Homo sapiens, HCT-116, 72 h): 85 ± 5 µM | IC50 [3]: 350 ± 17 µM

NS(=O)(=O)c1ccc(-c2nnc(/C=C/c3ccc(C(F)(F)F)cc3)o2)cc1 [Compound 50, (E)-4-(5-(4-(Trifluoromethyl)styryl)-1,3,4-oxadiazol-2-yl)benzenesulfonamide]
IC50 [1]: 520 ± 25 µM | IC50 ([2]; Homo sapiens, HCT-116, 72 h): 155 ± 7 µM | IC50 [3]: 280 ± 15 µM

Reference: PMC7139731, “Synthesis, Anticancer Evaluation and Structure-Activity Analysis of Novel (E)- 5-(2-Arylvinyl)-1,3,4-oxadiazol-2-yl)benzenesulfonamides” (International Journal of Molecular Sciences, 2020)
